Experimental data reported in PMC10906223 (JCI Insight, 2024).
Values joined by “and” are separate entries in the source; they are usually repeats but may differ in a detail not shown here. Equal values may be shown once. Read-outs that look alike come from different tables or passages of the source.

Assays:
diabetic NOD mice = assay: Daily body weight in NOD mice; type: in vivo, mouse; settings: for Daily body weight (Figure 7F): Diabetic, WCDD301 treated, in g (unit assumed)
Method: We preweighed WCDD301 into microfuge tubes and reconstituted it using deionized water. Using a 10 μL pipette tip, we placed the calculated dose of WCDD301 (at the volume range of 1–1.5 μL) within the center of pearls. WCDD301 was placed into pearls 30–45 minutes before administration. For oral administration of pearls, we designed an applicator using a disposable plastic transfer pipette and syringe plunger lubricated with olive oil. Food intake and body weight in each experimental group (diabetic WCDD301-treated, diabetic placebo-treated, and nondiabetic placebo-treated NOD mice) were monitored daily for 4 weeks. Urine glucose was measured from individually caged NOD mice (nondiabetic placebo treated n = 2, diabetic placebo treated n = 2, and diabetic WCDD301 treated n = 4, 21–23 weeks old) with metabolic cages. Urine glucose was monitored every 24 hours for 10 days by semiquantitative measurements (P-STICKS, Millpledge Veterinary).

EphA4 receptor = target: T1, EphA4 receptor (Mus musculus, UniProt Q03137); assay: ELISA: binding affinity (Ki) of WCDD301 for EphA4 via bound Ephrin-A5 Fc; design: Bound Ephrin (0.1 µM-WCDD301) / Bound Ephrin, raw data: unit not given here; settings: for Bound Ephrin (0.1 µM-WCDD301): replicates, Figure 1B
T1 construct: purchased R&D Systems 641-A4-200
Method: Wells of the protein A–coated microplate (Pierce, catalog 15132) were washed using 200 μL of binding buffer (PBS supplemented by 0.01% Tween 20). Recombinant mouse EphA4 Fc chimera protein (R&D Systems, catalog 641-A4-200) was reconstituted in 1× PBS (Genesee, catalog 25-507XB, pH 7.2 ± 0.1), diluted to 3 μg/mL using binding buffer, dispensed (100 μL) in each well, and rocked on a belly dancer shaker (3 hours at room temperature, RT). Following 3 washes in the binding buffer, blocking was done using blocking buffer (5% BSA in binding buffer) for 3 hours at RT. Then, after 5 washes, the reconstituted recombinant mouse Ephrin-A5 Fc (R&D Systems, catalog 7396-EA-050) was added (100 μL) into each well and rocked for 2.5 hours on the shaker (Ephrin-A5 Fc concentrations were used as described in the Results section). After 7 washes using binding buffer, alkaline phosphatase–conjugated antibody against Ephrin-A5 was diluted (1:1,000) in the binding buffer plus 2% BSA, added to each well, and incubated at 4°C, overnight. Conjugation of the anti-EFNA5 antibody (Abnova, catalog H00001946-M02; 0.5 mg/mL; target sequence 114–203) was done using Abcam conjugation kit (catalog ab102850) based on the manufacturer’s instruction. After washing 7 times, p-nitrophenyl phosphate tablet (MilliporeSigma, catalog N1891) was reconstituted in 5 mL of PBS and added to each well (100 μL). Following 1 hour shaking at RT in the dark, reaction was stopped by adding 100 μL of 3N NaOH. OD was read at 405 nm within 5 minutes using the microplate reader (Agilent BioTek Cytation 5).
As a control, Fc fragment (BioLegend, catalog 790102) was incubated and used for normalization of data. […] Then, Ki was determined via an approach called finding Ki without global fitting ([58]) by using the following formula: […]
This approach provided a Km value for […] and an estimate for its binding affinity, Ki. To further verify this finding, experiments were designed in the context of 8 nM Ephrin-A5 to determine bound levels of Ephrin-A5 in the presence of WCDD301 (0, 0.1, 0.4, 0.8, and 1.6 μM). Data were normalized and fit by nonlinear regression in GraphPad Prism software version 4 to determine IC50. Then, by using the Cheng-Prusoff equation

[1] = Pharmacokinetics in CD-1 mice, subcutaneous or intravenous; type: in vivo, mouse; settings: for Plasma concentration (Supplemental Figure 5A) / Plasma concentration (Supplemental Figure 5B): individual mice M1-M3, route not given
Method: CD-1 mice were injected with WCDD301 subcutaneously (1 mg/kg, n = 3) or intravenously (1 mg/kg, n = 3), and blood was collected from saphenous vein directly into K2-EDTA–containing microcentrifuge tubes at 5, 10, and 15 minutes postdosing. An aliquot of 20 μL plasma was deproteinized using 200 μL of internal standard solution (100 ng/mL of labetalol and tolbutamide in acetonitrile), incubated for 10 minutes at RT, and centrifuged at 1,800g for 10 minutes at 4°C. Following 1:1 dilution of the supernatant with deionized water, 1 μL of the diluted sample was used for LC-MS/MS analysis (TripleQuad 6500, column: ACQUITY UPLC BEH C18 2.1 × 50 mm, 1.7 μm; flow rate: 0.6 mL/min, retention time: 1.60/1.78 WCDD301/labetalol).

[2] = WCDD301 0.1 µM, 8 nM Ephrin-A5, Figure 1C

T1 sequence (Q03137 with tags, fused parts or gaps limits assumed): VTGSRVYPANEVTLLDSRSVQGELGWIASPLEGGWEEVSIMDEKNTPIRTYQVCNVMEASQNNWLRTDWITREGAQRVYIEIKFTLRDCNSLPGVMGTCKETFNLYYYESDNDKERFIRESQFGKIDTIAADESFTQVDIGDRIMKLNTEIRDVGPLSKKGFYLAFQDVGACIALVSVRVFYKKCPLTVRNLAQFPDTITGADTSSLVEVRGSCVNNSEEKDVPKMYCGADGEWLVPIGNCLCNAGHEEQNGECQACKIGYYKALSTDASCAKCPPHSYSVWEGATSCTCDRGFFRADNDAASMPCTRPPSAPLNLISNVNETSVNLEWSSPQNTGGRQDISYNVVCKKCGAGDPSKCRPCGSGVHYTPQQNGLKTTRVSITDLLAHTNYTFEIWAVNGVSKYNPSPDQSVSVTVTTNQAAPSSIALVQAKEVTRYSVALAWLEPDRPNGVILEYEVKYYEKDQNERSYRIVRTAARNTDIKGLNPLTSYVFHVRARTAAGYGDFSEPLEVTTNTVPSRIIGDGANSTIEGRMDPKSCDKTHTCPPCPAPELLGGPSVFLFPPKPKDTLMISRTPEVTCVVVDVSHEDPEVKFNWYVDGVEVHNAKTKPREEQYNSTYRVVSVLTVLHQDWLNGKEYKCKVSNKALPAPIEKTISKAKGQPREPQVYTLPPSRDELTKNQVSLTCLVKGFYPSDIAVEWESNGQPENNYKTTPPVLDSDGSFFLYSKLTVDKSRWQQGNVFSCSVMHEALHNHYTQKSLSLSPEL

Structure (SMILES): CC(=O)OCC(N)(COC(C)=O)COC(C)=O [WCDD301, 2-(acetoxymethyl)-2-aminopropane-1,3-diyl diacetate]
- Daily body weight (Figure 7F) (diabetic NOD mice; Day 1): 22.8 and 23.7 and 24.1 and 24.7
- Daily body weight (Figure 7F) (diabetic NOD mice; Day 2): 23 and 23.9 and 24.3 and 25.3
- Daily body weight (Figure 7F) (diabetic NOD mice; Day 3): 22.6 and 23.4 and 23.9 and 25.3
- Daily body weight (Figure 7F) (diabetic NOD mice; Day 7): 22.3 and 23.1 and 23.5 and 24.7
- Daily body weight (Figure 7F) (diabetic NOD mice; Day 8): 22.3 and 23.1 and 23.5 and 24.8
- Daily body weight (Figure 7F) (diabetic NOD mice; Day 9): 22.6 and 23.4 and 23.9 and 24.8
- Daily body weight (Figure 7F) (diabetic NOD mice; Day 10): 22.3 and 23.1 and 23.5 and 24.6
- Daily body weight (Figure 7F) (diabetic NOD mice; Day 11): 22.3 and 23.1 and 23.5 and 25.1
- Daily body weight (Figure 7F) (diabetic NOD mice; Day 12): 22.4 and 23.2 and 23.7 and 25.4
- Daily body weight (Figure 7F) (diabetic NOD mice; Day 13): 22.5 and 23.3 and 23.8 and 25.3
- Daily body weight (Figure 7F) (diabetic NOD mice; Day 14): 22.6 and 23.4 and 23.9 and 25.2
- Daily body weight (Figure 7F) (diabetic NOD mice; Day 15): 22.9 and 23.8 and 24.2 and 24.7
- Daily body weight (Figure 7F) (diabetic NOD mice; Day 16): 23.1 and 24 and 24.4 and 25.6
- Daily body weight (Figure 7F) (diabetic NOD mice; Day 17): 23 and 23.9 and 24.3 and 25.3
- Daily body weight (Figure 7F) (diabetic NOD mice; Day 18): 22.8 and 23.7 and 24.1 and 25.2
- Daily body weight (Figure 7F) (diabetic NOD mice; Day 19): 22.4 and 23.2 and 23.7 and 25.1
- Daily body weight (Figure 7F) (diabetic NOD mice; Day 20): 22.6 and 23.4 and 23.9 and 25.7
- Daily body weight (Figure 7F) (diabetic NOD mice; Day 21): 22.5 and 23.3 and 23.8 and 25.1
- Daily body weight (Figure 7F) (diabetic NOD mice; Day 22): 22.6 and 23.4 and 23.9 and 25.1
- Daily body weight (Figure 7F) (diabetic NOD mice; Day 23): 22.4 and 23.2 and 23.7 and 25.1
- Daily body weight (Figure 7F) (diabetic NOD mice; Day 24): 22.5 and 23.3 and 23.8 and 25.1
- Daily body weight (Figure 7F) (diabetic NOD mice; Day 25): 22.5 and 23.3 and 23.8 and 25.2
- Daily body weight (Figure 7F) (diabetic NOD mice; Day 26): 22.3 and 23.1 and 23.5 and 25.4
- Daily body weight (Figure 7F) (diabetic NOD mice; Day 27): 22.3 and 23.1 and 23.5 and 25.2
- Daily body weight (Figure 7F) (diabetic NOD mice; Day 28): 22.8 and 23.7 and 24.1 and 25.4
- Body weight, daily monitoring (diabetic NOD mice; diabetic WCDD301-treated mice): phenotypes similar to nondiabetic placebo-treated mice
- Ki (EphA4 receptor; 8 nM Ephrin-A5, Figure 1C, read-out: Ki via Cheng-Prusoff equation): 130 nM
- IC50 (EphA4 receptor; 8 nM Ephrin-A5, WCDD301 0-1.6 μM, Figure 1C): 210 nM
- Bound Ephrin (0.1 µM-WCDD301) (EphA4 receptor; EFN 2 nM): 0.08 and 0.079 and 0.05
- Bound Ephrin (0.1 µM-WCDD301) (EphA4 receptor; EFN 4 nM): 0.057 and 0.077 and 0.06
- Bound Ephrin (0.1 µM-WCDD301) (EphA4 receptor; EFN 8 nM): 0.119 and 0.122 and 0.09
- Bound Ephrin (0.1 µM-WCDD301) (EphA4 receptor; EFN 16 nM): 0.141 and 0.136 and 0.1
- Bound Ephrin (0.1 µM-WCDD301) (EphA4 receptor; EFN 32 nM): 0.235 and 0.22 and 0.2
- Bound Ephrin (0.1 µM-WCDD301) (EphA4 receptor; EFN 64 nM): 0.301 and 0.295 and 0.32
- Ki (EphA4 receptor; ELISA with Ephrin-A5 Fc, read-out: Ki, binding affinity for EphA4 receptor): ≤ 130 nM
- Bound Ephrin, normalized (EphA4 receptor; [2]): 51.76 and 79.12
- Bound Ephrin, raw data (EphA4 receptor; [2]): 0.069 and 0.1
- Bound Ephrin, raw data (EphA4 receptor; WCDD301 0.4 µM, 8 nM Ephrin-A5, Figure 1C): 0.037 and 0.06 and 0.07
- Bound Ephrin, raw data (EphA4 receptor; WCDD301 0.8 µM, 8 nM Ephrin-A5, Figure 1C): 0.02 and 0.035 and 0.04
- Bound Ephrin, raw data (EphA4 receptor; WCDD301 1.6 µM, 8 nM Ephrin-A5, Figure 1C): 0.012 and 0.009 and 0.01
- Plasma concentration (Supplemental Figure 5A) ([1]; 5 min): 64.8 and 47.6 and 146
- Plasma concentration (Supplemental Figure 5B) ([1]; 5 min): 57.9 and 180 and 135
- Plasma concentration (Supplemental Figure 5A) ([1]; 10 min): 44.3 and 27.1 and 52.9
- Plasma concentration (Supplemental Figure 5B) ([1]; 10 min): 11 and 18.9 and 12.4
- Plasma concentration (Supplemental Figure 5A) ([1]; 15 min): 31.3 and 22.7 and 21.7
- Plasma concentration (Supplemental Figure 5B) ([1]; 15 min): 0 and 6.64 and 3.56
- Plasma concentration, subcutaneous compared with intravenous ([1]; CD-1 mice, 1 mg/kg, 15 minutes): increased plasma concentrations of WCDD301 at 15 minutes following subcutaneous injection
